In PubChem BioAssay (NCI):
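96-well plates; 48 h exposure; 5 concentrations. Endpoints by linear interpolation between flanking doses. Not reached: highest tested concentration assigned. The concentration for 50% growth inhibition is given as GI50. TGI marks complete inhibition of growth.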

How the values were obtained:
Test in all cases: NCI anticancer screen, dose series, 48 h
NCI-H23 lung = test system: NCI-H23 lung
K-562 leukemia = test system: K-562 leukemia
CCRF-CEM leukemia = test system: CCRF-CEM leukemia
DU-145 prostate = test system: DU-145 prostate
HCT-15 colon = test system: HCT-15 colon
ACHN renal = test system: ACHN renal
HCC-2998 colon = test system: HCC-2998 colon
HS 578T breast = test system: HS 578T breast
UACC-62 melanoma = test system: UACC-62 melanoma
IGROV1 ovarian = test system: IGROV1 ovarian
M14 melanoma = test system: M14 melanoma
NCI-H460 lung = test system: NCI-H460 lung
UACC-257 melanoma = test system: UACC-257 melanoma
COLO 205 colon = test system: COLO 205 colon
MOLT-4 leukemia = test system: MOLT-4 leukemia
OVCAR-4 ovarian = test system: OVCAR-4 ovarian
SF-268 CNS = test system: SF-268 CNS
PC-3 prostate = test system: PC-3 prostate
UO-31 renal = test system: UO-31 renal
A498 renal = test system: A498 renal
KM12 colon = test system: KM12 colon
RPMI-8226 leukemia = test system: RPMI-8226 leukemia
EKVX NSCLC = test system: EKVX NSCLC
HL-60(TB) leukemia = test system: HL-60(TB) leukemia
MDA-MB-435 = test system: MDA-MB-435
RXF 393 renal = test system: RXF 393 renal
NCI-H226 lung = test system: NCI-H226 lung
HCT-116 colon = test system: HCT-116 colon
OVCAR-5 ovarian = test system: OVCAR-5 ovarian
LOX IMVI melanoma = test system: LOX IMVI melanoma
MCF7 breast = test system: MCF7 breast
SK-OV-3 ovarian = test system: SK-OV-3 ovarian
OVCAR-3 ovarian = test system: OVCAR-3 ovarian
SF-295 CNS = test system: SF-295 CNS
BT-549 breast = test system: BT-549 breast
SN12C renal = test system: SN12C renal
NCI/ADR-RES ovarian = test system: NCI/ADR-RES ovarian
MALME-3M melanoma = test system: MALME-3M melanoma
OVCAR-8 ovarian = test system: OVCAR-8 ovarian
SF-539 CNS = test system: SF-539 CNS
786-0 renal = test system: 786-0 renal
SW-620 colon = test system: SW-620 colon
CAKI-1 renal = test system: CAKI-1 renal
SR leukemia = test system: SR leukemia
SNB-19 CNS = test system: SNB-19 CNS
SK-MEL-28 melanoma = test system: SK-MEL-28 melanoma
SK-MEL-5 melanoma = test system: SK-MEL-5 melanoma
NCI-H522 lung = test system: NCI-H522 lung
T-47D breast = test system: T-47D breast
TK-10 renal = test system: TK-10 renal
SK-MEL-2 melanoma = test system: SK-MEL-2 melanoma
A549 NSCLC = test system: A549 NSCLC
SNB-75 CNS = test system: SNB-75 CNS
HOP-92 NSCLC = test system: HOP-92 NSCLC
MDA-MB-231 breast = test system: MDA-MB-231 breast
HOP-62 NSCLC = test system: HOP-62 NSCLC

Work on `COc1ccc2c(ccc3c(C(=O)NCCCN(C)CCCNC(=O)c4cn(C)c5c4ccc4cc(OC)ccc45)cn(C)c32)c1` yielded a TGI (NCI-H23 lung) of 2.97 µM, a TGI (K-562 leukemia) of over 100 µM and a TGI (CCRF-CEM leukemia) of over 100 µM. The TGI (DU-145 prostate) was 3.17 µM, the TGI (HCT-15 colon) was 2.6 µM and the TGI (ACHN renal) was 3.02 µM. The TGI (HCC-2998 colon) was 2.97 µM, the TGI (HS 578T breast) was 4.78 µM and the TGI (UACC-62 melanoma) was 3.15 µM. It also gave a TGI (IGROV1 ovarian) of 2.86 µM, a TGI (M14 melanoma) of 2.94 µM and a TGI (NCI-H460 lung) of 2.79 µM. For the same compound, the TGI (UACC-257 melanoma) was 2.97 µM, the TGI (COLO 205 colon) was 4.87 µM and the TGI (MOLT-4 leukemia) was over 100 µM. It also gave a TGI (OVCAR-4 ovarian) of 3.27 µM, a TGI (SF-268 CNS) of 3.38 µM and a TGI (PC-3 prostate) of 2.88 µM. The TGI (UO-31 renal) was 3.01 µM, the TGI (A498 renal) was over 100 µM and the TGI (KM12 colon) was 2.9 µM. The TGI (RPMI-8226 leukemia) was 5.89 µM and the TGI (EKVX NSCLC) was 2.92 µM.
With `COc1cc(C2CC(c3cccc(Nc4ccnc5cc(Cl)ccc45)c3)=NN2c2ccccc2)cc(OC)c1OC` (centres undefined) the GI50 (HL-60(TB) leukemia) was 5.37 µM, the TGI (HL-60(TB) leukemia) was over 100 µM and the GI50 (NCI-H23 lung) was 64.4 µM. It also gave a TGI (NCI-H23 lung) of over 100 µM, a GI50 (MDA-MB-435) of 1.47 µM and a TGI (MDA-MB-435) of 14.2 µM. It also gave a GI50 (RXF 393 renal) of 8.37 µM, a TGI (RXF 393 renal) of over 100 µM and a GI50 (K-562 leukemia) of 3.75 µM. It also gave a TGI (K-562 leukemia) of over 100 µM, a GI50 (CCRF-CEM leukemia) of 6.4 µM and a TGI (CCRF-CEM leukemia) of over 100 µM. For the same compound, the GI50 (NCI-H226 lung) was 41.2 µM, the TGI (NCI-H226 lung) was over 100 µM and the GI50 (HCT-116 colon) was 6.51 µM. For the same compound, the TGI (HCT-116 colon) was over 100 µM, the GI50 (OVCAR-5 ovarian) was over 100 µM and the TGI (OVCAR-5 ovarian) was over 100 µM. The GI50 (LOX IMVI melanoma) was 2.3 µM, the TGI (LOX IMVI melanoma) was over 100 µM and the GI50 (MCF7 breast) was 2.74 µM. For the same compound, the TGI (MCF7 breast) was over 100 µM, the GI50 (SK-OV-3 ovarian) was over 100 µM and the TGI (SK-OV-3 ovarian) was over 100 µM. For the same compound, the GI50 (OVCAR-3 ovarian) was 8.64 µM, the TGI (OVCAR-3 ovarian) was over 100 µM and the GI50 (SF-295 CNS) was 3.55 µM. It also gave a TGI (SF-295 CNS) of over 100 µM, a GI50 (BT-549 breast) of 13.9 µM and a TGI (BT-549 breast) of over 100 µM. It also gave a GI50 (SN12C renal) of over 100 µM, a TGI (SN12C renal) of over 100 µM and a GI50 (NCI/ADR-RES ovarian) of 5.97 µM. The TGI (NCI/ADR-RES ovarian) was over 100 µM, the GI50 (MALME-3M melanoma) was over 100 µM and the TGI (MALME-3M melanoma) was over 100 µM. For the same compound, the GI50 (DU-145 prostate) was over 100 µM, the TGI (DU-145 prostate) was over 100 µM and the GI50 (OVCAR-8 ovarian) was 7.68 µM. For the same compound, the TGI (OVCAR-8 ovarian) was over 100 µM, the GI50 (HCT-15 colon) was 2.91 µM and the TGI (HCT-15 colon) was over 100 µM. For the same compound, the GI50 (SF-539 CNS) was 3.08 µM, the TGI (SF-539 CNS) was 18.1 µM and the GI50 (786-0 renal) was 5.88 µM. The TGI (786-0 renal) was over 100 µM, the GI50 (ACHN renal) was 3.52 µM and the TGI (ACHN renal) was over 100 µM. For the same compound, the GI50 (HCC-2998 colon) was 5.32 µM, the TGI (HCC-2998 colon) was 33.8 µM and the GI50 (SW-620 colon) was 2.44 µM. For the same compound, the TGI (SW-620 colon) was over 100 µM, the GI50 (CAKI-1 renal) was 2.52 µM and the TGI (CAKI-1 renal) was over 100 µM. It also gave a GI50 (SR leukemia) of 5.49 µM, a TGI (SR leukemia) of over 100 µM and a GI50 (HS 578T breast) of 9.22 µM. For the same compound, the TGI (HS 578T breast) was over 100 µM, the GI50 (UACC-62 melanoma) was 0.869 µM and the TGI (UACC-62 melanoma) was over 100 µM. For the same compound, the GI50 (SNB-19 CNS) was over 100 µM, the TGI (SNB-19 CNS) was over 100 µM and the GI50 (IGROV1 ovarian) was 29.2 µM. For the same compound, the TGI (IGROV1 ovarian) was over 100 µM, the GI50 (M14 melanoma) was 2.6 µM and the TGI (M14 melanoma) was over 100 µM. It also gave a GI50 (SK-MEL-28 melanoma) of 10.4 µM, a TGI (SK-MEL-28 melanoma) of over 100 µM and a GI50 (SK-MEL-5 melanoma) of 4.56 µM. It also gave a TGI (SK-MEL-5 melanoma) of 23.8 µM, a GI50 (NCI-H460 lung) of 3.27 µM and a TGI (NCI-H460 lung) of over 100 µM. It also gave a GI50 (NCI-H522 lung) of 3.6 µM, a TGI (NCI-H522 lung) of over 100 µM and a GI50 (UACC-257 melanoma) of 10.5 µM. The TGI (UACC-257 melanoma) was over 100 µM, the GI50 (COLO 205 colon) was 15.7 µM and the TGI (COLO 205 colon) was 46.3 µM. For the same compound, the GI50 (MOLT-4 leukemia) was 7.98 µM, the TGI (MOLT-4 leukemia) was over 100 µM and the GI50 (T-47D breast) was 1.44 µM. It also gave a TGI (T-47D breast) of over 100 µM, a GI50 (TK-10 renal) of 9.57 µM and a TGI (TK-10 renal) of over 100 µM. It also gave a GI50 (SK-MEL-2 melanoma) of 8.78 µM, a TGI (SK-MEL-2 melanoma) of 75.6 µM and a GI50 (A549 NSCLC) of 8.87 µM. For the same compound, the TGI (A549 NSCLC) was over 100 µM, the GI50 (SNB-75 CNS) was 6.6 µM and the TGI (SNB-75 CNS) was over 100 µM. The GI50 (SF-268 CNS) was 75.5 µM, the TGI (SF-268 CNS) was over 100 µM and the GI50 (PC-3 prostate) was 1.71 µM. For the same compound, the TGI (PC-3 prostate) was over 100 µM, the GI50 (HOP-92 NSCLC) was 3.6 µM and the TGI (HOP-92 NSCLC) was over 100 µM. The GI50 (MDA-MB-231 breast) was 4.77 µM, the TGI (MDA-MB-231 breast) was over 100 µM and the GI50 (UO-31 renal) was 1.68 µM. The TGI (UO-31 renal) was over 100 µM, the GI50 (HOP-62 NSCLC) was 3.81 µM and the TGI (HOP-62 NSCLC) was over 100 µM. It also gave a GI50 (KM12 colon) of 2 µM, a TGI (KM12 colon) of over 100 µM and a GI50 (RPMI-8226 leukemia) of 5.33 µM. The TGI (RPMI-8226 leukemia) was over 100 µM.
